Measured values: patent US7205382B2, “Peptides, the production and use thereof for binding immunoglobulins” (Fresenius Medical Care Affina GmbH, priority 2000, dated 2007)
Bridge positions count the residues as written; N and C are the ends. Ends that are not written are not given here. cellulose = not defined here; βAla = NCCC(=O)O

What was measured:
Format in all cases: binding
Parameters in all cases: key: No binding of immunoglobulin for the defined peptide variant, detection negative: 0; Binding of immunoglobulin for the defined peptide variant, detection positive: +
[1] = tested on: immunoglobulins in human plasma; assay: Cellulose-immobilized 13-mer peptide variants incubated with human plasma, anti-human IgG-AP detection; conditions: human plasma as sample, diluted 1:10,000 in blocking buffer, 3 h room temperature
Method in brief: (§1)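 Spot membrane, (βA)(βA) spacer; T-TBS pH 8.0 wash, block 5% saccharose/4% BSA. 3 h RT with IgG-Fc 1 μg/ml, serum 1:10,000, or block buffer only (specificity control). 3× wash, AP-anti-human IgG 1.2 μg/ml, NBT/BCIP in pH 9.5 buffer.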

serum albumin = assay: Cellulose-immobilized 13-mer peptide variants incubated with serum albumin (negative control), anti-human IgG-AP detection; conditions: blocking buffer without addition, 3 h room temperature
Method in brief: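 Peptides on cellulose via a (βA)(βA) spacer were blocked in T-TBS (pH 8.0) with 5% saccharose and 4% BSA, then exposed for 3 h at room temperature to IgG-Fc (1 μg/ml), serum diluted 1:10,000, or blocking buffer alone. Bound IgG was detected with AP-anti-human IgG (1.2 μg/ml) and NBT/BCIP colour development.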

human IgG-Fc = assay: Cellulose-immobilized 13-mer peptide variants incubated with human IgG-Fc, anti-human IgG-AP detection; conditions: IgG-Fc 1 μg/ml in blocking buffer, 3 h room temperature
Method in brief: as §1

Substance: 11D: cellulose-bound 13-mer variant DCAWHLGELVDCT-(βA)(βA) (DCAWHLGELVDCT-{βAla-βAla-cellulose}; disulfide 2-12 (inferred); reading uncertain; also: printed as DCAWHLGELVDCT-(βA)(βA))
- Result for incubation with human plasma (immunoglobulin binding detection) [1]: 0
- Result for incubation with serum albumin (immunoglobulin binding detection) (serum albumin): 0
- Result for incubation with human IgG-Fc (immunoglobulin binding detection) (human IgG-Fc): 0

Substance: 11E: cellulose-bound 13-mer variant DCAWHLGELVECT-(βA)(βA) (DCAWHLGELVECT-{βAla-βAla-cellulose}; disulfide 2-12 (inferred); reading uncertain; also: printed as DCAWHLGELVECT-(βA)(βA))
- Result for incubation with human plasma (immunoglobulin binding detection) [1]: 0
- Result for incubation with serum albumin (immunoglobulin binding detection) (serum albumin): 0
- Result for incubation with human IgG-Fc (immunoglobulin binding detection) (human IgG-Fc): 0

Substance: 11F: cellulose-bound 13-mer variant DCAWHLGELVFCT-(βA)(βA) (DCAWHLGELVFCT-{βAla-βAla-cellulose}; disulfide 2-12 (inferred); reading uncertain; also: printed as DCAWHLGELVFCT-(βA)(βA))
- Result for incubation with human plasma (immunoglobulin binding detection) [1]: 0
- Result for incubation with serum albumin (immunoglobulin binding detection) (serum albumin): 0
- Result for incubation with human IgG-Fc (immunoglobulin binding detection) (human IgG-Fc): 0

Substance: 11G: cellulose-bound 13-mer variant DCAWHLGELVGCT-(βA)(βA)
- Result for incubation with human plasma (immunoglobulin binding detection) [1]: 0
- Result for incubation with serum albumin (immunoglobulin binding detection) (serum albumin): 0
- Result for incubation with human IgG-Fc (immunoglobulin binding detection) (human IgG-Fc): 0

Substance: 11H: cellulose-bound 13-mer variant DCAWHLGELVHCT-(βA)(βA)
- Result for incubation with human plasma (immunoglobulin binding detection) [1]: 0
- Result for incubation with serum albumin (immunoglobulin binding detection) (serum albumin): 0
- Result for incubation with human IgG-Fc (immunoglobulin binding detection) (human IgG-Fc): +

Substance: 11I: cellulose-bound 13-mer variant DCAWHLGELVICT-(βA)(βA)
- Result for incubation with human plasma (immunoglobulin binding detection) [1]: 0
- Result for incubation with serum albumin (immunoglobulin binding detection) (serum albumin): 0
- Result for incubation with human IgG-Fc (immunoglobulin binding detection) (human IgG-Fc): 0

Substance: 11K: cellulose-bound 13-mer variant DCAWHLGELVKCT-(βA)(βA)
- Result for incubation with human plasma (immunoglobulin binding detection) [1]: 0
- Result for incubation with serum albumin (immunoglobulin binding detection) (serum albumin): 0
- Result for incubation with human IgG-Fc (immunoglobulin binding detection) (human IgG-Fc): +

Substance: 11L: cellulose-bound 13-mer variant DCAWHLGELVLCT-(βA)(βA)
- Result for incubation with human plasma (immunoglobulin binding detection) [1]: 0
- Result for incubation with serum albumin (immunoglobulin binding detection) (serum albumin): 0
- Result for incubation with human IgG-Fc (immunoglobulin binding detection) (human IgG-Fc): 0

Substance: 11M: cellulose-bound 13-mer variant DCAWHLGELVMCT-(βA)(βA)
- Result for incubation with human plasma (immunoglobulin binding detection) [1]: 0
- Result for incubation with serum albumin (immunoglobulin binding detection) (serum albumin): 0
- Result for incubation with human IgG-Fc (immunoglobulin binding detection) (human IgG-Fc): 0

Substance: 11N: cellulose-bound 13-mer variant DCAWHLGELVNCT-(βA)(βA)
- Result for incubation with human plasma (immunoglobulin binding detection) [1]: 0
- Result for incubation with serum albumin (immunoglobulin binding detection) (serum albumin): 0
- Result for incubation with human IgG-Fc (immunoglobulin binding detection) (human IgG-Fc): 0

Substance: 11P: cellulose-bound 13-mer variant DCAWHLGELVPCT-(βA)(βA)
- Result for incubation with human plasma (immunoglobulin binding detection) [1]: 0
- Result for incubation with serum albumin (immunoglobulin binding detection) (serum albumin): 0
- Result for incubation with human IgG-Fc (immunoglobulin binding detection) (human IgG-Fc): 0

Substance: 11Q: cellulose-bound 13-mer variant DCAWHLGELVQCT-(βA)(βA)
- Result for incubation with human plasma (immunoglobulin binding detection) [1]: 0
- Result for incubation with serum albumin (immunoglobulin binding detection) (serum albumin): 0
- Result for incubation with human IgG-Fc (immunoglobulin binding detection) (human IgG-Fc): 0

Substance: 11R: cellulose-bound 13-mer variant DCAWHLGELVRCT-(βA)(βA)
- Result for incubation with human plasma (immunoglobulin binding detection) [1]: 0
- Result for incubation with serum albumin (immunoglobulin binding detection) (serum albumin): 0
- Result for incubation with human IgG-Fc (immunoglobulin binding detection) (human IgG-Fc): 0

Substance: 11S: cellulose-bound 13-mer variant DCAWHLGELVSCT-(βA)(βA)
- Result for incubation with human plasma (immunoglobulin binding detection) [1]: 0
- Result for incubation with serum albumin (immunoglobulin binding detection) (serum albumin): 0
- Result for incubation with human IgG-Fc (immunoglobulin binding detection) (human IgG-Fc): 0

Substance: 11T: cellulose-bound 13-mer variant DCAWHLGELVTCT-(βA)(βA)
- Result for incubation with human plasma (immunoglobulin binding detection) [1]: 0
- Result for incubation with serum albumin (immunoglobulin binding detection) (serum albumin): 0
- Result for incubation with human IgG-Fc (immunoglobulin binding detection) (human IgG-Fc): 0

Substance: 11V: cellulose-bound 13-mer variant DCAWHLGELVVCT-(βA)(βA)
- Result for incubation with human plasma (immunoglobulin binding detection) [1]: 0
- Result for incubation with serum albumin (immunoglobulin binding detection) (serum albumin): 0
- Result for incubation with human IgG-Fc (immunoglobulin binding detection) (human IgG-Fc): 0

Substance: 11Y: cellulose-bound 13-mer variant DCAWHLGELVYCT-(βA)(βA)
- Result for incubation with human plasma (immunoglobulin binding detection) [1]: 0
- Result for incubation with serum albumin (immunoglobulin binding detection) (serum albumin): 0
- Result for incubation with human IgG-Fc (immunoglobulin binding detection) (human IgG-Fc): 0

Substance: 12A: cellulose-bound 13-mer variant DCAWHLGELVWAT-(βA)(βA) (DCAWHLGELVWAT-{βAla-βAla-cellulose}; not fully specified; printed as DCAWHLGELVWAT-(βA)(βA); reading uncertain)
- Result for incubation with human plasma (immunoglobulin binding detection) [1]: 0
- Result for incubation with serum albumin (immunoglobulin binding detection) (serum albumin): 0
- Result for incubation with human IgG-Fc (immunoglobulin binding detection) (human IgG-Fc): 0

Substance: 12D: cellulose-bound 13-mer variant DCAWHLGELVWDT-(βA)(βA) (DCAWHLGELVWDT-{βAla-βAla-cellulose}; not fully specified; printed as DCAWHLGELVWDT-(βA)(βA); reading uncertain)
- Result for incubation with human plasma (immunoglobulin binding detection) [1]: 0
- Result for incubation with serum albumin (immunoglobulin binding detection) (serum albumin): 0
- Result for incubation with human IgG-Fc (immunoglobulin binding detection) (human IgG-Fc): 0

Substance: 12E: cellulose-bound 13-mer variant DCAWHLGELVWET-(βA)(βA) (DCAWHLGELVWET-{βAla-βAla-cellulose}; not fully specified; printed as DCAWHLGELVWET-(βA)(βA); reading uncertain)
- Result for incubation with human plasma (immunoglobulin binding detection) [1]: 0
- Result for incubation with serum albumin (immunoglobulin binding detection) (serum albumin): 0
- Result for incubation with human IgG-Fc (immunoglobulin binding detection) (human IgG-Fc): 0

Substance: 12F: cellulose-bound 13-mer variant DCAWHLGELVWFT-(βA)(βA) (DCAWHLGELVWFT-{βAla-βAla-cellulose}; not fully specified; printed as DCAWHLGELVWFT-(βA)(βA); reading uncertain)
- Result for incubation with human plasma (immunoglobulin binding detection) [1]: 0
- Result for incubation with serum albumin (immunoglobulin binding detection) (serum albumin): 0
- Result for incubation with human IgG-Fc (immunoglobulin binding detection) (human IgG-Fc): 0

Substance: 12G: cellulose-bound 13-mer variant DCAWHLGELVWGT-(βA)(βA) (DCAWHLGELVWGT-{βAla-βAla-cellulose}; not fully specified; printed as DCAWHLGELVWGT-(βA)(βA); reading uncertain)
- Result for incubation with human plasma (immunoglobulin binding detection) [1]: 0
- Result for incubation with serum albumin (immunoglobulin binding detection) (serum albumin): 0
- Result for incubation with human IgG-Fc (immunoglobulin binding detection) (human IgG-Fc): 0

Substance: 12H: cellulose-bound 13-mer variant DCAWHLGELVWHT-(βA)(βA) (DCAWHLGELVWHT-{βAla-βAla-cellulose}; not fully specified; printed as DCAWHLGELVWHT-(βA)(βA); reading uncertain)
- Result for incubation with human plasma (immunoglobulin binding detection) [1]: 0
- Result for incubation with serum albumin (immunoglobulin binding detection) (serum albumin): 0
- Result for incubation with human IgG-Fc (immunoglobulin binding detection) (human IgG-Fc): 0

Substance: 12I: cellulose-bound 13-mer variant DCAWHLGELVWIT-(βA)(βA) (DCAWHLGELVWIT-{βAla-βAla-cellulose}; not fully specified; printed as DCAWHLGELVWIT-(βA)(βA); reading uncertain)
- Result for incubation with human plasma (immunoglobulin binding detection) [1]: 0
- Result for incubation with serum albumin (immunoglobulin binding detection) (serum albumin): 0
- Result for incubation with human IgG-Fc (immunoglobulin binding detection) (human IgG-Fc): 0

Substance: 12K: cellulose-bound 13-mer variant DCAWHLGELVWKT-(βA)(βA) (DCAWHLGELVWKT-{βAla-βAla-cellulose}; not fully specified; printed as DCAWHLGELVWKT-(βA)(βA); reading uncertain)
- Result for incubation with human plasma (immunoglobulin binding detection) [1]: 0
- Result for incubation with serum albumin (immunoglobulin binding detection) (serum albumin): 0
- Result for incubation with human IgG-Fc (immunoglobulin binding detection) (human IgG-Fc): 0
